Reference: PMC11442134, “The phytopathogen Xanthomonas campestris senses and effluxes salicylic acid via a sensor HepR and an RND family efflux pump to promote virulence in host plants” (mLife, 2024)

Key:
[1] = target: T1, HepR (Xanthomonas campestris, UniProt Q8P3A9); assay: ITC with purified His-HepR (Kd […]); confirmed by SPR (Kd […]); SA inhibits HepR–Phep binding in EMSA
T1 construct: gene slyA; 147-amino acid protein, His-tagged HepR (pET28a), dimer

[2] = target: HepR (MarR family transcription factor, Xcc4167) (Xanthomonas campestris pv. campestris (strain XC1)); assay: SEC; FPLC gel filtration of Ni-NTA purified His-tagged HepR on Superdex 75; 25 mM HEPES, 150 mM NaCl, pH 7.4

Row | Molecule | Kd [1] [µM] | stoichiometry N [2]
1 | O=C(O)c1ccccc1O [SA, Salicylic acid] | 19.3 | 
2 | HepR (MarR family transcription factor, Xcc4167) (natural protein) |  | 2
